Measurements reported in US7432260B2, “Pyrimidine compounds” (Cyclacel Limted, priority 2002, dated 2008).

Columns and labels:
[1] = test system: HIV-1 (clinical paediatric strain RoJo or WeJo) in human PBMCs; test: Anti-HIV efficacy evaluation in fresh human PBMCs; format: cell-based; details: for IC50 / IC90: Human immunodeficiency virus 1, PBMC, 168 h, seven days following infection; for IC50: concentration inhibiting virus replication by 50%; for IC90: concentration inhibiting virus replication by 90%
Experimental: Representative compounds of the present invention were tested for antiviral activity against HIV-1 in human peripheral blood mononuclear cells (PBMCs) using the clinical paediatric HIV strain RoJo or WeJo. PBMCs were cultured under conditions which promote cell survival and HIV replication. Antiviral activity was tested for from 6-9 log10 serial dilutions of a 100 μM compound stock solution in DMSO.
Fresh PBMCs, seronegative for HIV and HBV, were isolated from screened donors (Interstate Blood Bank, Inc. Memphis, Term.). Cells were pelleted/washed 2-3 times by low speed centrifugation and re-suspension in PBS to remove contaminating platelets. […] Banded PBMCs were gently aspirated from the resulting interface and subsequently washed with PBS by low speed centrifugation. After the final wash, cells were enumerated by trypan blue exclusion and re-suspended in RPMI 1640 supplemented with fetal bovine serum (FBS), and L-glutamine, Phytohemagglutinin (PHA-P, Sigma). The cells were allowed to incubate at 37° C. After incubation, PBMCs were centrifuged and resuspended in RPMI 1640 with FBS, L-glutamine, penicillin, streptomycin, gentamycin, and recombinant human IL-2 (R&D Systems, Inc). IL-2 is included in the culture medium to maintain the cell division initiated by the PHA mitogenic stimulation. PBMCs were maintained in this with bi-weekly medium changes until used in the assay protocol. Cells were kept in culture for a maximum of two weeks before being deemed too old for use in assays and discarded. Monocytes were depleted from the culture as the result of adherence to the tissue culture flask.
For the standard PBMC assay, PHA-P stimulated cells from at least two normal donors were pooled, diluted and plated in the interior wells of a 96-well round bottom microplate. Pooling of mononuclear cells from more than one donor was used to minimise the variability observed between individual donors, which results from quantitative and qualitative differences in HIV infection and overall response to the PHA and IL-2 of primary lymphocyte populations. Each plate contained virus/cell control wells (cells plus virus), experimental wells (drug plus cells plus virus) and compound control wells (drug plus media […], necessary for MTS monitoring of cytotoxicity). Since HIV-1 is not cytopathic to PBMCs, this allows the use of the same assay plate for both antiviral activity and cytotoxicity measurements. Test drug dilutions were prepared in microtiter tubes and each concentration was placed in appropriate wells using the standard format. A predetermined dilution of virus stock was placed in each test well (final MOI≅0.1). The PBMC cultures were maintained for seven days following infection at 37° C., 5% CO2. After this period, cell-free supernatant samples were collected for analysis of reverse transcriptase activity and/or HIV p24 content. Following removal of supernatant samples, compound cytotoxicity was measured by addition of MTS to the plates for determination of cell viability. Wells were also examined microscopically and any abnormalities were noted.
Reverse transcriptase activity assay: A microtiter plate-based reverse transcriptase (RT) reaction was utilised (Buckheit et al., AIDS Research and Human Retroviruses 7:295-302, 1991). Tritiated thymidine triphosphate (^3H-TTP, 80 Ci/mmol, NEN) was received in 1:1 dH2O:Ethanol at 1 mCi/mL. Poly rA:oligo dT template:primer (Pharmacia) was prepared as a stock solution, followed by aliquoting and storage at −20° C. The RT reaction buffer was prepared fresh on a daily basis. The final reaction mixture was prepared by combining ^3H-TTP, dH2O, poly rA:oligo dT stock and reaction buffer. This reaction mixture was placed in a round bottom microtiter plate and supernatant containing virus was added and mixed. The plate was incubated at 37° C. for 60 minutes. Following incubation, the reaction volume was spotted onto DE81 filter-mats (Wallac), in a sodium phosphate buffer or 2×SSC (Life Technologies). […]

[2] = target: p70 ribosomal protein S6 kinase (Homo sapiens, UniProt P23443); test: Kinase assay p70/S6; format: biochemical; details: Table 3 selectivity panel; read-out: Kinase specificity IC50 p70/S6
Sequence of p70 ribosomal protein S6 kinase (P23443 91-352 limits assumed): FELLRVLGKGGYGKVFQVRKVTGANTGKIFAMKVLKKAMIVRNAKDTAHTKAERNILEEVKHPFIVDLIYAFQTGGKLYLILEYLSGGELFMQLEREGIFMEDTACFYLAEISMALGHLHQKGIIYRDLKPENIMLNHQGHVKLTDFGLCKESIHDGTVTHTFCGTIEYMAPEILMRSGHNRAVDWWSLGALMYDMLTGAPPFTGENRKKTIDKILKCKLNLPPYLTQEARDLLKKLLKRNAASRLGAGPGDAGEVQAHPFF
Experimental: Kinase assays. […] This was achieved by measurement of incorporation of radioactive phosphate from ATP into appropriate polypeptide substrates. Recombinant protein kinases and kinase complexes were produced or obtained commercially. Assays were performed using 96-well plates and appropriate assay buffers (typically 25 mM β-glycerophosphate, 20 mM MOPS, 5 mM EGTA, 1 mM DTT, 1 mM […], pH 7.4), into which were added 2-4 μg of active enzyme with appropriate substrates. The reactions were initiated by addition of Mg/ATP mix (15 mM MgCl2+100 μM ATP with 30-50 kBq per well of [γ-^32P]-ATP) and mixtures incubated as required at 30° C. Reactions were stopped on ice, followed by filtration through p81 filterplates or GF/C filterplates (Whatman Polyfiltronics, Kent, UK). After washing 3 times with 75 mM aq orthophosphoric acid, plates were dried, scintillant added and incorporated radioactivity measured in a scintillation counter (TopCount, Packard Instruments, Pangbourne, Berks, UK). Compounds for kinase assay were made-up as 10 mM stocks in DMSO and diluted into 10% DMSO inrassay buffer.

DU-145 = test: 72-h MTT cytotoxicity assay DU-145; format: cell-based; details: Homo sapiens, DU-145, 72 h; Table 5; Prostate
Experimental: (§1) MTT cytotoxicity assay. […] Standard 72-h MTT (thiazolyl blue; 3-[4,5-dimethylthiazol-2-yl]-2,5-diphenyltetrazolium bromide) assays were performed (Haselsberger, K.; Peterson, D. C.; Thomas, D. G.; Darling, J. L. Anti Cancer Drugs 1996, 7, 331-8; Loveland, B. E.; Johns, T. G.; Mackay, I. R.; Vaillant, F.; Wang, Z. X.; Hertzog, P. J. Biochemistry International 1992, 27, 501-10). In short: cells were seeded into 96-well plates according to doubling time and incubated overnight at 37° C. Test compounds were made up in DMSO and a 1/3 dilution series prepared in 100 μL cell media, added to cells (in triplicates) and incubated for 72 ho at 37° C. MTT was made up as a stock of 5 mg/mL in cell media and filter-sterilised. Media was removed from cells followed by a wash with 200 μL PBS.
(§2) MTT solution was then added at 20 μL per well and incubated in the dark at 37° C. for 4 h. MTT solution was removed and cells again washed with 200 μL PBS. MTT dye was solubilised with 200 μL per well of DMSO with agitation.

HL60 = test: 72-h MTT cytotoxicity assay HL60; format: cell-based; details: Homo sapiens, HL-60, 72 h; Table 5; Promyelocytic leukaemia
Experimental: as §1, §2

H1299 = test: 72-h MTT cytotoxicity assay H1299; format: cell-based; details: Homo sapiens, NCI-H1299, 72 h; Table 5; Lung
Experimental: as §1, §2

U2OS = test: 72-h MTT cytotoxicity assay U2OS; format: cell-based; details: Homo sapiens, Table 5, Bone osteosarcoma
Experimental: as §1, §2

Messa = test: 72-h MTT cytotoxicity assay Messa; format: cell-based; details: Homo sapiens, MES-SA, Table 5, Uterine
Experimental: as §1, §2

Hacat = test: 72-h MTT cytotoxicity assay Hacat; format: cell-based; details: Homo sapiens, Table 5, Skin keratinocytes
Experimental: as §1, §2

Row | Compound | IC50 [1] [nM] | IC90 [1] [nM] | IC50 [2] [nM] | IC50 (DU-145) [nM] | IC50 (HL60) [nM] | IC50 (H1299) [nM] | IC50 (U2OS) [nM] | IC50 (Messa) [nM] | IC50 (Hacat) [nM] | anti-viral effect in cell based assays [1]
1 | CNc1nc(C)c(-c2ccnc(Nc3ccc(N4CCOCC4)cc3)n2)s1 [Compound 3, [4-(2-N-Methylamino-4-methyl-thiazol-5-yl)-pyrimidin-2-yl]-(4-morpholinophenyl)-amine] | 297 | 679 | 2600 |  |  |  |  |  |  | 
2 | CC[C@@H](N)C(=O)Nc1nc(C)c(-c2ccnc(Nc3cccc([N+](=O)[O-])c3)n2)s1 [Compound 16, (2R)-2-Amino-N-{4-methyl-5-[2-(3-nitro-phenylamino)-pyrimidin-4-yl]-thiazol-2-yl}-butyramide] |  |  | 8000 | 600 | 600 | 600 | 480 | 400 | 1100 | 
3 | CCNc1nc(C)c(-c2ccnc(Nc3ccc(N4CCOCC4)cc3)n2)s1 [Compound 4, [4-(2-Ethylamino-4-methyl-thiazol-5-yl)-pyrimidin-2-yl]-(4-morpholin-4-yl-phenyl)-amine] | 166 | 295 |  |  |  |  |  |  |  | 
4 | Cc1nc(C)c(-c2ccnc(Nc3ccc(NC(=O)CN4CCCC4)cc3)n2)s1 [Compound 53, N-{4-[4-(2,4-Dimethyl-thiazol-5-yl)-pyrimidin-2-ylamino]-phenyl}-2-pyrrolidin-1-yl-acetamide] | 812 | 871 |  |  |  |  |  |  |  | 
5 | Cc1nc(N)sc1-c1ccnc(Nc2ccc(N3CCOCC3)cc2)n1 [Compound 1, [4-(2-Amino-4-methyl-thiazol-5-yl)-pyrimidin-2-yl]-(4-morpholin-4-yl-phenyl)-amine] | 1330 | 2640 |  | 1500 | 1800 | 900 | 2100 | 200 | 1100 | particularly effective anti-viral agent
6 | Cc1nc(NC(=O)[C@H](N)[C@@H](C)O)sc1-c1ccnc(Nc2cccc([N+](=O)[O-])c2)n1 [Compound 15, (2R,3R)-2-Amino-3-hydroxy-N-{4-methyl-5-[2-(3-nitro-phenylamino)-pyrimidin-4-yl]-thiazol-2-yl}-butyramide] | 124 | 385 | > 100000 | 1300 | 2200 | 1300 | 1020 | 900 | 1500 | 
7 | CNc1nc(C)c(-c2ccnc(Nc3ccc(N4CCN(Cc5ccccc5)CC4)cc3)n2)s1 [Compound 11, [4-(4-Benzyl-piperazin-1-yl)-phenyl]-[4-(4-methyl-2-methylamino-thiazol-5-yl)-pyrimidin-2-yl]-amine] |  |  | > 100000 | 1000 | 1700 | 1100 | 2300 | 100 | 1000 | 
